{"source": "patent US12331121B2", "about": "“Efflux pump-cancer antigen multi-specific antibodies and compositions, reagents, kits and methods related thereto” (William Robert Arathoon Living Trust Dated August 29, 2016, priority 2019, dated 2025)", "key": {"293T naïve cells": {"test_system": "293T naïve cells", "assay": "FACS binding to cells co-expressing Pgp and CD47", "parameters": "species or system human", "settings": "FIG. 4", "procedure": "(§1) In FIG. 4A-4B, the binding of the bispecific antibody is shown by FACS analysis against a variety of cell lines. The first scan (left panel in FIG. 4A and FIG. 4B) illustrates binding of the antibody to cells co-expressing both targets, (Pgp and CD47). […] FIG. 4A-4B further show binding with titrated antibody concentrations of 600 nM, 200 nM, 66 nM, 7.4 nM and 2 nM, with the signal measured from isotype and no antibody control also provided. The respective antibody concentrations are indicated in the left panel of FIG. 4A and FIG. 4B, and the measured signal from these different concentrations are generally overlapping in the middle and right panels of FIGS. 4A and 4B. FIG. 4A and FIG. 4B represent results obtained from two different batches of antibody."}, "[1]": {"test_system": "293 KT14-KO and KPB1-KD cells", "assay": "FACS binding to cells with only one target present", "parameters": "species or system human", "settings": "CD47 knock-out or Pgp knock-down 293T cells, FIG. 4", "procedure": "as §1"}, "[2]": {"test_system": "multidrug resistant N6ADR cells", "assay": "N6ADR tumor volume in mice (Example 2, FIG. 9)", "format": "in vivo", "settings": "antibody on day 0, 4, 7, 11; no chemotherapeutic agent", "procedure": "N6ADR cells were injected into a cohort of 6 mice per test group prior to administration of the indicated antibodies. The antibodies were administered once palpable tumors reached a size of about 100-150 mm^3 (about 7 days after injection of tumor cells). Antibodies were administered on day 0, day 4, day 7, and day 11. Tumor volumes were measured and are plotted. Panel A: 15D3/MRK16 monoclonal anti-MDR1 antibody. Panel B: KT14/MRK16 monoclonal anti-CD47 antibody. Panel C: Co-administration of 15D3/MRK16 monoclonal anti-MDR1 antibody and KT14/MRK16 monoclonal anti-CD47 antibody. Panel D: KbisP1.1 antibody.\nThe indicated antibodies were administered with or without the chemotherapeutic agent paclitaxel. Antibody was dosed about 1-4 hrs prior to Paclitaxel."}, "[3]": {"test_system": "human red blood cells (RBCs)", "assay": "Binding to human erythrocytes", "settings": "FIG. 22A; in contrast to anti-CD47 5F9"}}}
{"substance": "KBisP1.1: bispecific anti-MDR1/anti-CD47 antibody: 15D3 heavy chain, 5F9 (KT14) heavy chain, common MRK16 light chain, human IgG1", "values": [{"measurement": "FACS binding when both targets are co-expressed", "setting": "293T naïve cells", "value": "specific binding"}, {"measurement": "FACS binding when only one of the targets is present", "setting": "[1]", "value": "does not show significant binding"}, {"measurement": "FACS binding when only one of the targets is present", "setting": "[1]; listed as HC-15D3:HC-5F9:LC-MRK16", "value": "significantly reduced binding"}, {"measurement": "effect on tumor volume without paclitaxel", "setting": "[2]", "value": "more efficacious than the co-administration"}, {"measurement": "binding to human erythrocytes", "setting": "[3]", "value": "no significant binding"}]}
